Source: ChEMBL document CHEMBL1201862, “PubChem BioAssay data set” (2004)
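1) Cells in 96-well plates. 2) Compound, 48 h, 5 concentrations. 3) Linear interpolation between surrounding doses. 4) Unreached endpoint = highest concentration. Here, GI50 denotes the concentration required for 50% inhibition of growth.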 The source made the active and inactive calls. Rule as the data show it: active = GI50 up to about 1.1 µM and inactive = higher.

Legend:
Assay in all cases: NCI tumour cell line growth inhibition, 48 h
[1] = system: CCRF-CEM
[2] = system: MDA-MB-435
[3] = system: U-251
[4] = system: TK-10
[5] = system: SK-MEL-2
[6] = system: MDA-N
[7] = system: NCI-H23
[8] = system: 786-0
[9] = system: PC-3
[10] = system: MCF7
[11] = system: T47D
[12] = system: SF-268
[13] = system: RXF 393
[14] = system: OVCAR-3
[15] = system: SK-OV-3
[16] = system: HOP-62
[17] = system: BT-549
[18] = system: M14
[19] = system: UO-31

Measured: GI50

CC(C)c1ccccc1[S+]([O-])c1ccccc1C(C)(C)O (configuration not stated)
inactive: [1] > 100 µM | [2] 39.6 µM | [3] 18.9 µM | [4] > 100 µM | [5] 67.6 µM | [6] 57.8 µM | [7] > 100 µM | [8] > 100 µM | [9] > 100 µM | [10] > 100 µM | [11] > 100 µM | [12] > 100 µM | [13] > 100 µM | [14] > 100 µM | [15] 30.9 µM | [16] 22.5 µM | [17] > 100 µM | [18] > 100 µM

C1=Cc2ccccc2C1.C=C(C)c1ccccc1.[N-]=[N+]=Nc1ccccc1
inactive: [2] 70.6 µM | [19] > 100 µM | [3] 71.3 µM | [4] > 100 µM | [5] > 100 µM | [6] 72.3 µM | [7] > 100 µM | [8] > 100 µM | [9] > 100 µM | [10] 31.3 µM | [11] 68.5 µM | [12] > 100 µM | [13] > 100 µM | [14] > 100 µM | [15] > 100 µM | [16] > 100 µM | [17] > 100 µM | [18] > 100 µM

c1ccc(NN(Cc2cnccn2)c2ccccc2)cc1
inactive: [1] 10.5 µM | [2] 89.9 µM | [3] 65 µM | [4] > 100 µM | [5] > 100 µM | [6] 40.2 µM | [7] 83 µM | [8] > 100 µM | [9] 65.8 µM | [10] 44.9 µM | [11] 68.4 µM | [12] > 100 µM | [13] > 100 µM | [14] 63.4 µM | [15] > 100 µM | [16] > 100 µM | [17] > 100 µM | [18] 90.2 µM

O=C1/C(=C/c2ccco2)N=C(c2ccccc2)N1c1ccc(S(=O)(=O)Nc2nccs2)cc1
inactive: [1] 75.7 µM | [2] > 100 µM | [19] 57.1 µM | [3] 71.9 µM | [4] > 100 µM | [5] > 100 µM | [6] > 100 µM | [7] > 100 µM | [8] > 100 µM | [9] 86.3 µM | [10] 61.4 µM | [11] 80.4 µM | [12] > 100 µM | [13] 69.5 µM | [14] 83.9 µM | [15] > 100 µM | [16] > 100 µM | [17] > 100 µM | [18] > 100 µM

Clc1ccc2nc3[nH]nc(Cl)c3nc2c1
inactive: [2] 77.8 µM | [19] 22.8 µM | [3] 60.7 µM | [4] 56.5 µM | [5] 40.6 µM | [6] 76.9 µM | [7] 48.1 µM | [8] 61.5 µM | [9] 34.6 µM | [10] 59.8 µM | [11] 44.1 µM | [12] 47.9 µM | [13] 35 µM | [14] 66.8 µM | [15] 41.9 µM | [16] 53.5 µM | [17] 28.4 µM | [18] 70.3 µM

CC(=O)NC1C(OCC(=O)NCCNc2ccc([N+](=O)[O-])c3[nH]c4ccccc4c(=O)c23)C(O)C(CO)OC1(C)OCc1ccccc1 (configuration not stated)
inactive: [1] > 100 µM | [2] > 100 µM | [19] > 100 µM | [3] > 100 µM | [4] > 100 µM | [5] > 100 µM | [6] > 100 µM | [7] > 100 µM | [8] > 100 µM | [9] > 100 µM | [10] > 100 µM | [11] > 100 µM | [12] > 100 µM | [13] > 100 µM | [14] > 100 µM | [15] > 100 µM | [16] > 100 µM | [17] > 100 µM | [18] > 100 µM

CC1(C)CCCCCCCCCC(C)(CCCCCCCCCCCCO)C1=O (configuration not stated)
inactive: [1] 17.4 µM | [2] 17.7 µM | [19] 18 µM | [3] 17.8 µM | [4] 17.7 µM | [5] 17.1 µM | [6] 18.6 µM | [7] 18.7 µM | [8] 18.6 µM | [9] 17.4 µM | [10] 16.8 µM | [11] 16.8 µM | [12] 17.3 µM | [13] 18.7 µM | [14] 15.6 µM | [15] 18.8 µM | [16] 22.5 µM | [17] 16.6 µM

O=[N+]([O-])c1ccc2c(c1)c(OCc1ccccc1)nn2Cc1ccccc1
inactive: [1] 40.1 µM | [2] > 100 µM | [19] > 100 µM | [4] 62.1 µM | [5] > 100 µM | [6] > 100 µM | [7] > 100 µM | [8] 55 µM | [9] 63.1 µM | [10] > 100 µM | [11] > 100 µM | [12] > 100 µM | [13] 34.2 µM | [14] > 100 µM | [15] > 100 µM | [16] 36.3 µM | [17] 71.8 µM | [18] > 100 µM

CCC(c1ccccc1)c1cc(C(C)(C)C)cc(C(C)(C)C)c1O (configuration not stated)
inactive: [2] 18.2 µM | [19] 18.4 µM | [3] 17.7 µM | [4] 15.5 µM | [5] 15.7 µM | [6] 17.1 µM | [7] 17.2 µM | [8] 15.6 µM | [9] 17.7 µM | [10] 20.1 µM | [11] 16.1 µM | [12] 15.3 µM | [13] 20 µM | [14] 14.2 µM | [15] 14.9 µM | [16] 16.2 µM | [17] 19.3 µM | [18] 18.6 µM

CSc1c(C#N)c(=O)n(N)c2c1c(C)nn2-c1ccccc1
inactive: [1] 19.4 µM | [2] 30.9 µM | [19] 18.5 µM | [3] 28.1 µM | [4] 30.1 µM | [5] 19.3 µM | [6] 35.6 µM | [7] 18.9 µM | [8] 40.5 µM | [9] 19.7 µM | [10] 16.6 µM | [11] 25.8 µM | [12] 42 µM | [13] 18.7 µM | [14] 25.1 µM | [15] 26.4 µM | [17] 30.1 µM | [18] 35.7 µM

CC(C)(CCCCC(C)(C)NCC1COc2ccccc2O1)NCC1COc2ccccc2O1 (configuration not stated)
inactive: [1] > 10 µM | [2] 1.81 µM | [3] 4.47 µM | [4] > 10 µM | [5] 3.29 µM | [6] 2.81 µM | [7] > 10 µM | [8] 3.25 µM | [9] > 10 µM | [10] 5.98 µM | [11] 7.83 µM | [12] 5.45 µM | [13] 3.18 µM | [14] > 10 µM | [15] > 10 µM | [16] > 10 µM | [17] > 10 µM | [18] 1.76 µM

COc1ccc(/N=N/C(=N/NC(=O)c2ccc(C)cc2)c2ccc(N(CCC#N)CCC#N)cc2OC)cc1
inactive: [2] > 100 µM | [19] > 100 µM | [3] > 100 µM | [4] > 100 µM | [5] > 100 µM | [6] > 100 µM | [7] > 100 µM | [8] > 100 µM | [9] > 100 µM | [10] > 100 µM | [11] > 100 µM | [12] > 100 µM | [13] > 100 µM | [14] > 100 µM | [15] > 100 µM | [16] > 100 µM | [17] > 100 µM | [18] > 100 µM

CN(N=O)C(=O)Nc1ccc(C(=O)O)cc1
inactive: [1] > 100 µM | [2] > 100 µM | [19] > 100 µM | [3] > 100 µM | [4] > 100 µM | [5] > 100 µM | [6] > 100 µM | [7] > 100 µM | [8] > 100 µM | [9] > 100 µM | [10] > 100 µM | [11] > 100 µM | [12] > 100 µM | [13] > 100 µM | [14] > 100 µM | [15] > 100 µM | [16] > 100 µM | [17] > 100 µM | [18] > 100 µM

CC(=O)N(C(=O)CC(=O)N/N=C\c1ccc(Br)c(N(CCC#N)CCC#N)c1)c1ccc(Cl)cc1
inactive: [1] > 100 µM | [2] 27.5 µM | [19] 24.8 µM | [3] 46.3 µM | [4] 27.8 µM | [6] 41.3 µM | [7] 86.1 µM | [8] 45.9 µM | [9] 96.6 µM | [10] 52.7 µM | [11] 43.3 µM | [12] > 100 µM | [13] > 100 µM | [14] 47.9 µM | [15] 49.7 µM | [16] 44.7 µM | [17] 58.9 µM | [18] 34.5 µM

COc1c(O)cc(C(=O)O[C@@H]2Cc3c(O)cc(O)cc3O[C@@H]2c2cc(O)c(O)c(O)c2)cc1O
inactive: [2] 17.4 µM | [19] 23 µM | [4] > 100 µM | [5] 63.2 µM | [6] 24.4 µM | [7] 31.5 µM | [8] 18.5 µM | [9] 68.1 µM | [10] 20 µM | [11] 26.2 µM | [12] 20.5 µM | [13] 18.4 µM | [14] 49.4 µM | [15] > 100 µM | [16] 30.7 µM | [17] 25.3 µM | [18] 59.4 µM
